The results in this text go back to PMC3939009, “Thrombin inhibitory activity of some polyphenolic compounds” (Medicinal Chemistry Research, 2013).

Like-named read-outs stand apart in the source and are kept apart here. Bounds are passed on as bounds.

Test [1] deals with human thrombin. Kind of test: Thrombin-induced platelet aggregation (turbidimetric). Format: cell-based. The method, then: Blood samples in 0.32 % sodium citrate from healthy volunteers without cardiovascular disorders were collected, untreated with antiplatelet drugs. […] Platelets were isolated from PRP using BSA–Sepharose 2B gel filtration method according to Walkowiak et al. ([2000]). […] In these preparations, to nine volumes of thrombin one volume of polyphenolic compounds was added (final thrombin concentration was 15.8 nM). All tested compounds were dissolved in 50 % DMSO to the initial concentration of 10 mM; other solutions of compounds were also prepared in 50 % DMSO (prepared in 50 mM TBS, pH 7.4). […] The platelet aggregation was measured by turbidimetric method (Saluk-Juszczak et al., [2007]) using dual-channel Chrono-log optical aggregometer (Chronolog, USA). […] Platelet suspensions were pre-warmed at 37 °C with stirring.

Test [2] concerns the target T1, human thrombin (Homo sapiens, UniProt P00734). Kind of test: Amidolytic activity of thrombin (hydrolysis of chromogenic substrate D-Phe-Pip-Arg-pNA). Details: Thrombin, also known as an active plasma coagulation factor II; purchased Sigma-Aldrich Chemical Co. (St. Louis, MO, USA) T7009; host or cells: purified from human plasma. It counts as biochemical. The method, then:
All tested compounds were dissolved in 50 % DMSO to the initial concentration of 10 mM; other solutions of compounds were also prepared in 50 % DMSO (prepared in 50 mM TBS, pH 7.4). The final concentration of DMSO in thrombin samples was 5 %. To prepare thrombin control samples, the same volume of solvent (50 % DMSO prepared in 50 mM TBS, pH 7.4) was added as in the case of the compound volume and warmed for 10 min to 37 °C.
To each reaction well, 40 μl of 3 mM chromogenic substrate was added. To initiate the chromogenic reaction, 280 μl of control thrombin (without tested compounds) or thrombin after preincubation with a polyphenolic compound to every reaction well in the same moment was added. The absorbance value was monitored every 12 s for 10 min. The maximal velocity of the reaction (V max, Δm OD/min) for each absorbance curve was determined. IC50 value (parameter) for every polyphenolic compound from inhibition curves was estimated.

In test [3] the target is T1, human thrombin. Nature of the test: Analysis of thrombin inhibition parameters (Lineweaver–Burk curves). Format: biochemical. Details: Thrombin, also known as an active plasma coagulation factor II; purchased Sigma-Aldrich Chemical Co. (St. Louis, MO, USA) T7009. Conditions: for k cat: compound at IC50 concentration, k cat = V max/E 0, control 29.1; for Type of inhibition: from Lineweaver–Burk curves; for V max of chromogenic substrate hydrolysis by thrombin / K m of chromogenic substrate hydrolysis by thrombin: thrombin incubated with compound at IC50 concentration; for V max of chromogenic substrate hydrolysis by thrombin: control 30.7; for K m of chromogenic substrate hydrolysis by thrombin: control 158.7. The method, then:
Absorbance was monitored every 12 s for 10 min in a 96-well microplate reader. The velocity of reaction was expressed as the increase in product (pNA) over time (∆ μmol/min) using a computer program Mikcroplate Manager® 8 and the extinction coefficient of p-nitroaniline. […] Then, the Lineweaver–Burk ([1934]) curves for thrombin in the presence and in the absence of polyphenol compounds were plotted. The Lineweaver–Burk equation, which is a transformation of the Michaelis–Menten model, looks as follows: 1/V=Km/Vmax·1/[S]+1/Vmax

The target of test [4] is T1, human thrombin. Kind of test: Thrombin-induced fibrinogen polymerization. It counts as biochemical. On the set-up: Thrombin, also known as an active plasma coagulation factor II; purchased Sigma-Aldrich Chemical Co. (St. Louis, MO, USA) T7009. The note with it: thrombin preincubated with compound; for Effect on thrombin ability to induce fibrinogen polymerization: 10 min 37 °C; for Concentration causing total inhibition of thrombin activity (fibrin polymerization): Vmax of fibrinogen polymerization at 595 nm. The method, then: In these preparations, to nine volumes of thrombin one volume of polyphenolic compounds was added (final thrombin concentration was 15.8 nM). All tested compounds were dissolved in 50 % DMSO to the initial concentration of 10 mM; other solutions of compounds were also prepared in 50 % DMSO (prepared in 50 mM TBS, pH 7.4). […] Polymerization of fibrin was monitored at 595 nm using a 96-well microtiter plate reader. To each reaction well of the microtiter plate, 100 μl of fibrinogen (3 mg/ml) in 50 mM TBS and 5 mM CaCl2, pH 7.4, were added. […] The maximal velocity of the polymerization process (V max, Δm OD/min) for each absorbance curve was determined (Nowak et al., [2007]).

Test [5] has as its target T1, human thrombin. Kind of test: BIAcore (SPR) analysis of binding to immobilized thrombin. On the set-up: Thrombin, also known as an active plasma coagulation factor II; purchased Sigma-Aldrich Chemical Co. (St. Louis, MO, USA) T7009. The note with it: for Response (RU): analyte 1,000 μM, thrombin immobilized on CM5 chip. The method, then: The biosensor assays were performed using the BIAcore 1000 biosensor system. All biosensor analyses were performed with a phosphate-buffered saline (PBS), pH 7.4, as a running buffer. […] The immobilization of thrombin on a biosensor carboxylmethyl dextran surface was performed according to the BIA applications Handbook (BIAcore, [1994]). The process of protein immobilization was performed on a sensor chip CM5 surface by the positively charged functional groups of protein amino acids. The immobilization process consisted of four steps: preconcentration, activation, ligand immobilization and deactivation of the residual NHS esters. […] The temperature during the whole experiment was also constant and was set to 25.0 °C. […] Each of these solutions (10 μl) was injected into an empty sensor chip channel. […] The amount of injected activation mixture was modified, to regulate the amount of immobilized ligand. […] The conditions of the latter experiments were established by numerous pre-tests. The assessed parameters included: the buffer flow rate, the volume of analyte injection, the concentration of analytes, types and concentration of regenerators. […] For each injection of analyte solution, the volume used was 100 μl. After injection of analyte was completed, the dissociation step occurred and the level of the interaction ligand-analyte was measured. During dissociation, the particles non-covalently bound to the ligand were washed out from the working channel. […] To do these calculations, the formulas presented below were used: the association rate […]]; the dissociation rate -d[AB]/dt=kd·[AB]; the equilibrium constants: KA=[AB]/[A]·[B]=ka/kd KD=[A]·[B]/[AB]=kd/ka.
(In general: In SPR one partner is held on a chip, and binding of the other changes the refractive index at the surface.)

Test [6] addresses T1, human thrombin. Kind of test: SDS-PAGE analysis of thrombin-induced cross-linked fibrin formation. It counts as biochemical. On the set-up: Thrombin, also known as an active plasma coagulation factor II; purchased Sigma-Aldrich Chemical Co. (St. Louis, MO, USA) T7009; host or cells: purified from human plasma. The method, then:
In these preparations, to nine volumes of thrombin one volume of polyphenolic compounds was added (final thrombin concentration was 15.8 nM). All tested compounds were dissolved in 50 % DMSO to the initial concentration of 10 mM; other solutions of compounds were also prepared in 50 % DMSO (prepared in 50 mM TBS, pH 7.4). The final concentration of DMSO in thrombin samples was 5 %. To prepare thrombin control samples, the same volume of solvent (50 % DMSO prepared in 50 mM TBS, pH 7.4) was added as in the case of the compound volume and warmed for 10 min to 37 °C.
The reactions incubated at 37 °C were stopped after 5, 15 and 30 min by adding 150 μl of lysis buffer (0.125 M Tris/HCl, 4 % SDS, 8 M urea, 10 % β-mercaptoethanol, pH 6.8). Samples were subjected to SDS-PAGE (polyacrylamide concentration—7.5 %) using Mini-Protean Electrophoresis Cell (Bio-Rad, Hercules, CA). Proteins were stained with Coomassie Brilliant Blue R250 (CBB).

The mark [7] stands for this setting: at 375 μM substrate concentration, compounds 0.1–1,000 μM, preincubation 10 min 37 °C, read-out: IC50, amidolytic activity of human thrombin.
The mark [8] stands for this setting: ten times IC50: cyanidin […], quercetin 15 μM, silybin 250 μM.

Consider `COc1cc(C2Oc3cc([C@H]4Oc5cc(O)cc(O)c5C(=O)[C@@H]4O)ccc3OC2CO)ccc1O` (stereo in doubt) [Silybin, silybin], for which the “Platelet aggregation, % of control” value with human thrombin [1] (compound 1,000 μM preincubated with thrombin) came out at 43%. Moreover, on human thrombin [2] (setting [7]), the IC50 was 0.025 mM. Besides, on human thrombin [3], the k cat was 25.6 s⁻¹, the Type of inhibition result is “competitive inhibitors”, the “V max of chromogenic substrate hydrolysis by thrombin” value was 27 10^−6 mol/min and the “K m of chromogenic substrate hydrolysis by thrombin” value is given as 550.5 10^−6 M. On human thrombin [4], the “Effect on thrombin ability to induce fibrinogen polymerization” value is given as “inhibition of thrombin ability to induce fibrinogen polymerization” and the “Concentration causing total inhibition of thrombin activity (fibrin polymerization)” value is > 1,000 μM. Also, the “K A, equilibrium association constant” value on human thrombin [5] (5 sensorgrams, 50 to 1,000 μM) was 53900 M⁻¹. At human thrombin [5] (5 sensorgrams, 50 to 1,000 μM, read-out: K D, equilibrium dissociation constant), the Kd stood at 0.0186 mM. Also, the kon on human thrombin [5] (5 sensorgrams, 50 to 1,000 μM, read-out: k a, association rate) is 7.11 M⁻¹ s⁻¹. In addition, the koff at human thrombin [5] (5 sensorgrams, 50 to 1,000 μM, read-out: k d, dissociation rate) was found to be 0.000132 s⁻¹. For the same compound, on human thrombin [5], the “Response (RU)” value is 1,424 RU. Moreover, the “Effect on formation of γ–γ chains and α-polymers” value (“Effect on formation” below) at human thrombin [6] (setting [8]) was “slightly reduced the formation of γ–γ chains and α-polymers”.
For the compound `O=C(O)Cc1ccc(O)cc1` [4-Hydroxyphenylacetic acid, 4-hydroxyphenylacetic acid], the IC50 at human thrombin [2] (setting [7]) is more than 1 mM.
On to `O=C(O)/C=C/c1ccc(O)c(O)c1` [Caffeic acid, caffeic acid], for which the half-maximal inhibitory concentration (IC50) on human thrombin [2] (setting [7]) was more than 1 mM.
Take `O=C(/C=C/c1ccc(O)c(O)c1)O[C@@H]1C[C@](O)(C(=O)O)C[C@@H](O)[C@H]1O` [Chlorogenic acid, chlorogenic acid]: on human thrombin [2] (setting [7]), the IC50 is more than 1 mM.
As to `O=C(O)/C=C/c1ccc(O)cc1` [Coumaric acid, coumaric acid], on human thrombin [2] (setting [7]), the half-maximal inhibitory concentration (IC50) was more than 1 mM.
For `Oc1cc(O)c2cc(O)c(-c3ccc(O)c(O)c3)[o+]c2c1` [Cyanidin, cyanidin], the “Platelet aggregation, % of control” value in the test with human thrombin [1] (compound 5 μM preincubated with thrombin) turned out to be 10%. On human thrombin [3], the k cat amounted to 28.7 s⁻¹, the Type of inhibition entry was “competitive inhibitors”, the “V max of chromogenic substrate hydrolysis by thrombin” value is 30.3 10^−6 mol/min and the “K m of chromogenic substrate hydrolysis by thrombin” value is listed as 600.6 10^−6 M. Moreover, at human thrombin [4], the “Effect on thrombin ability to induce fibrinogen polymerization” value is on record as “inhibition of thrombin ability to induce fibrinogen polymerization” and the “Concentration causing total inhibition of thrombin activity (fibrin polymerization)” value came out at 5 µM. In addition, the “Response (RU)” value at human thrombin [5] is 2,251 RU. Further, the “Effect on formation” value at human thrombin [6] (at IC50 concentration of amidolytic inhibition: cyanidin […], quercetin 1.5 μM) is “also inhibited the formation of γ–γ chains and α-polymers”. Moreover, at human thrombin [6] (setting [8]), the “Effect on formation” value was “significantly inhibited the formation of γ–γ chains and α-polymers”.
In the case of `COc1cc(/C=C/C(=O)O)ccc1O` [Ferulic acid, ferulic acid], the half-inhibitory concentration (IC50) at human thrombin [2] (setting [7]) is more than 1 mM.
Compound `O=C(O)c1cc(O)c(O)c(O)c1` [Gallic acid, gallic acid] showed an IC50 against human thrombin [2] of more than 1 mM.
`O=c1c(-c2ccc(O)cc2)coc2cc(O)cc(O)c12` [Genistein, genistein] registered an IC50 on human thrombin [2] of more than 1 mM.
Turning to `COc1ccc([C@@H]2CC(=O)c3c(O)cc(O)cc3O2)cc1O` [Hesperetin, hesperetin], on human thrombin [2] (setting [7]), the IC50 was more than 1 mM.
On to `COc1ccc([C@@H]2CC(=O)c3c(O)cc(O[C@@H]4O[C@H](CO[C@@H]5O[C@@H](C)[C@H](O)[C@@H](O)[C@H]5O)[C@@H](O)[C@H](O)[C@H]4O)cc3O2)cc1O` [Hesperidin, hesperidin], for which the concentration for half-maximal inhibition (IC50) at human thrombin [2] (setting [7]) is more than 1 mM.
In the case of `O=C1C[C@@H](c2ccc(O)cc2)Oc2cc(O)cc(O)c21` [Naringenin, naringenin], the IC50 on human thrombin [2] (setting [7]) is more than 1 mM.
On the same count and under the same terms, the value for `C[C@@H]1O[C@@H](O[C@H]2[C@H](Oc3cc(O)c4c(c3)O[C@H](c3ccc(O)cc3)CC4=O)O[C@H](CO)[C@@H](O)[C@@H]2O)[C@H](O)[C@H](O)[C@H]1O` [Naringin, naringin] was more than 1 mM.
On to `Oc1cc(O)c2c(c1)O[C@H](c1ccc(O)c(O)c1)[C@H](O)[C@H]2c1c(O)cc(O)c2c1O[C@H](c1ccc(O)c(O)c1)[C@H](O)C2` [Procyanidin B2, procyanidin B2], for which, at human thrombin [2] (setting [7]), the IC50 is more than 1 mM.
Turning to `Oc1ccc(/C=C/c2cc(O)cc(O)c2)cc1` [Resveratrol, resveratrol], on human thrombin [2] (setting [7]), the half-maximal inhibitory concentration (IC50) is more than 1 mM.
For `C[C@@H]1O[C@@H](OC[C@H]2O[C@@H](Oc3c(-c4ccc(O)c(O)c4)oc4cc(O)cc(O)c4c3=O)[C@H](O)[C@@H](O)[C@@H]2O)[C@H](O)[C@H](O)[C@H]1O` [Rutin, rutin], at human thrombin [2] (setting [7]), the IC50 is more than 1 mM.

As a reminder, the IC50 is the concentration that gives 50% inhibition.
